Source: patent US20240300937A1, “Substituted 6-(Pyrimidin-4-yl)Quinoline Compounds as Cyclin Dependent Kinase Inhibitors” (BeiGene, Ltd., priority 2022, published 2024)
pIC50: −log10 of the molar value.

Legend:
[1] = target: CDK6/Cyclin D3 (Homo sapiens (Human), UniProt Q00534); assay: CDK6/Cyclin D3 kinase TR-FRET inhibition assay; type: biochemical; settings: 1 mM ATP, Rb (Ser780)-biotin substrate, read-out: CDK6D3 IC50
Method: (§1) Compounds disclosed herein were tested for inhibition of CDK4/Cyclin D1 or CDK6/Cyclin D3 kinase in an assay based on the time-resolved fluorescence-resonance energy transfer (TR-FRET) methodology. The assay was carried out in 384-well low volume black plates in a reaction mixture containing CDK4/Cyclin D1 or CDK6/Cyclin D3, 1 mM ATP, 0.15 μM Rb (Ser780)-biotin substrate and 0-10 μM compound in buffer containing 50 mM HEPES pH7.0, 0.02% NaN3, 0.01% BSA, 0.1 mM Orthovanadate, 50 mM MgCl2, 1 mM DTT and 0.005% Tween-20. The kinase was incubated with compound for 60 minutes at room temperature and the reaction was initiated by the addition of ATP and Rb (Ser780)-biotin substrate. After reaction at room temperature for 120 minutes, an equal volume of stop/detection solution was added according to the manufacture's instruction (Cisbio Bioassays). The stop/detection solution contained Streptavidin-XL665 and Anti-pRb (Ser780) mAb-Eu Cryptate in Detection buffer (Cisbio Bioassays). Plates were incubated at room temperature for 60 minutes, and the TR-FRET signals (ex337 nm, em665 nm/620 nm) were recorded on a PHERAstar FSX plate reader (BMG Labtech). The inhibition percentage of CDK4/Cyclin D1 or CDK6/Cyclin D3 kinase activity in presence of increasing concentrations of compounds was calculated based on the ratio of fluorescence at 665 nm to that at 620 nm. The IC50 for each compound was derived from fitting the data to the four-parameter logistic equation by Dotmatics.

[2] = target: CDK4/Cyclin D1 (Homo sapiens (Human), UniProt P11802); assay: CDK4/Cyclin D1 kinase TR-FRET inhibition assay; type: biochemical; settings: 1 mM ATP, Rb (Ser780)-biotin substrate, read-out: CDK4D1 IC50
Sequence of CDK4/Cyclin D1 (P11802 whole entry): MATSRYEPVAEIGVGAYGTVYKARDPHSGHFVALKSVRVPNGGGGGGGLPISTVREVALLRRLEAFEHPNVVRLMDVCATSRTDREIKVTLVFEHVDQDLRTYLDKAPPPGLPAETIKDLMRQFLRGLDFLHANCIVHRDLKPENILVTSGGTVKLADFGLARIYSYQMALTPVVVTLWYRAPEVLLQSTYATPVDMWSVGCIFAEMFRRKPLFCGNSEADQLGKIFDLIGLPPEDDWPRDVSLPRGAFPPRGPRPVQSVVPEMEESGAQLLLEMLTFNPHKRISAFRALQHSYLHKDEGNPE
Sequence of CDK4/Cyclin D1 (P24385 whole entry partner): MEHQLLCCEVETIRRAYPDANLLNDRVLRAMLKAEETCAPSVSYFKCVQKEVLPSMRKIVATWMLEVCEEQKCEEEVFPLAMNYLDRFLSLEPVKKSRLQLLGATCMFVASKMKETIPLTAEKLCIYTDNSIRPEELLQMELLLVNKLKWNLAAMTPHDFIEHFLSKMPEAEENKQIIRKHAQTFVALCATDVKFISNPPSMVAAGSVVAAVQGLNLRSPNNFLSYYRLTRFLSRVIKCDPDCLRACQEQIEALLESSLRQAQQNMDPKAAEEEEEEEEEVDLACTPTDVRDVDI
Method: as §1

Sequence of CDK6/Cyclin D3 (Q00534 whole entry): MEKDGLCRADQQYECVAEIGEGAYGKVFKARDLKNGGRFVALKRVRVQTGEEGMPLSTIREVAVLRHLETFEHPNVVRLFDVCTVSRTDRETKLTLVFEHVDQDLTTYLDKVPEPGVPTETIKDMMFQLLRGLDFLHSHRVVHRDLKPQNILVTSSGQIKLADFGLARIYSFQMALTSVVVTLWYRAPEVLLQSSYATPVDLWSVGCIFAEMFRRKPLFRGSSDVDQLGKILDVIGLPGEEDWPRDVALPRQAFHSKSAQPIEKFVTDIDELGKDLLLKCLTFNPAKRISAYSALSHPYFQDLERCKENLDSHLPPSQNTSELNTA
Sequence of CDK6/Cyclin D3 (P30281 whole entry partner): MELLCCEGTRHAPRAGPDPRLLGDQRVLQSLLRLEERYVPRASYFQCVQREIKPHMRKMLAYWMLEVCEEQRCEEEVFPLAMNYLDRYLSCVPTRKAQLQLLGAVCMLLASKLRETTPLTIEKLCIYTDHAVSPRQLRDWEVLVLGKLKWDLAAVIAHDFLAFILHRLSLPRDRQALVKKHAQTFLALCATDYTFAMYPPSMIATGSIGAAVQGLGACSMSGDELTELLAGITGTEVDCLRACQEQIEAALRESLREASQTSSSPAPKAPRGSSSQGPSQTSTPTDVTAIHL

| Structure (SMILES) | pIC50 [1] | pIC50 [2] |
| --- | --- | --- |
| Cc1nc2ccc(-c3nc(N[C@@H]4CCOC[C@H]4O)ncc3F)cc2c(C(C)C)c1C [Example 7, (3S,4R)-4-((5-fluoro-4-(4-isopropyl-2,3-dimethylquinolin-6-yl)pyrimidin-2-yl)amino)tetrahydro-2H-pyran-3-ol] | 6.28 | 7.36 |
| CC(C)c1c(CN2CCCC2=O)cnc2ccc(-c3nc(N[C@@H]4CCOC[C@H]4O)ncc3F)cc12 [Example 12, 1-((6-(5-fluoro-2-(((3S,4R)-3-hydroxytetrahydro-2H-pyran-4-yl)amino)pyrimidin-4-yl)-4-isopropylquinolin-3-yl)methyl)pyrrolidin-2-one] | 6.49 | 7.72 |
| CC(C)c1c(CN2CCOCC2=O)cnc2ccc(-c3nc(N[C@@H]4CCOC[C@H]4O)ncc3F)cc12 [Example 13, 4-((6-(5-fluoro-2-(((3S,4R)-3-hydroxytetrahydro-2H-pyran-4-yl)amino)pyrimidin-4-yl)-4-isopropylquinolin-3-yl)methyl)morpholin-3-one] | 6.33 | 7.80 |
| CC(C)c1c(CN2CC3CC(C2)O3)cnc2ccc(-c3nc(N[C@@H]4CCOC[C@H]4O)ncc3F)cc12 [Example 14, (3S,4R)-4-((4-(3-((6-oxa-3-azabicyclo[3.1.1]heptan-3-yl)methyl)-4-isopropylquinolin-6-yl)-5-fluoropyrimidin-2-yl)amino)tetrahydro-2H-pyran-3-ol] | 6.64 | 7.92 |
| Cc1nc2ccc(-c3nc(N[C@@H]4CCOC[C@H]4O)ncc3F)cc2c(C(C)C)c1CO [Example 15, (3S,4R)-4-((5-fluoro-4-(3-(hydroxymethyl)-4-isopropyl-2-methylquinolin-6-yl)pyrimidin-2-yl)amino)tetrahydro-2H-pyran-3-ol] | 6.25 | 7.37 |
| CC(C)c1c(CN2CC(O)C2)cnc2ccc(-c3nc(N[C@@H]4CCOC[C@H]4O)ncc3F)cc12 [Example 16, 1-((6-(5-fluoro-2-(((3S,4R)-3-hydroxytetrahydro-2H-pyran-4-yl)amino)pyrimidin-4-yl)-4-isopropylquinolin-3-yl)methyl)azetidin-3-ol] | 6.22 | 7.82 |
| CC(C)c1c(CN2CCOCC2)cnc2ccc(-c3nc(N[C@@H]4CCOC[C@H]4O)ncc3F)cc12 [Example 17, (3S,4R)-4-((5-fluoro-4-(4-isopropyl-3-(morpholinomethyl)quinolin-6-yl)pyrimidin-2-yl)amino)tetrahydro-2H-pyran-3-ol] | 6.73 | 7.96 |
| CC(C)c1c(CN2CC[C@H](F)C2)cnc2ccc(-c3nc(N[C@@H]4CCOC[C@H]4O)ncc3F)cc12 [Example 18, (3S,4R)-4-((5-fluoro-4-(3-(((S)-3-fluoropyrrolidin-1-yl)methyl)-4-isopropylquinolin-6-yl)pyrimidin-2-yl)amino)tetrahydro-2H-pyran-3-ol] | 6.22 | 7.59 |
| CC(C)c1c(CNC2CCC2)cnc2ccc(-c3nc(N[C@@H]4CCOC[C@H]4O)ncc3F)cc12 [Example 19, (3S,4R)-4-((4-(3-((cyclobutylamino)methyl)-4-isopropylquinolin-6-yl)-5-fluoropyrimidin-2-yl)amino)tetrahydro-2H-pyran-3-ol] | 5.91 | 7.70 |
| CC(C)c1c(CNC2CC(F)(F)C2)cnc2ccc(-c3nc(N[C@@H]4CCOC[C@H]4O)ncc3F)cc12 [Example 20, (3S,4R)-4-((4-(3-(((3,3-difluorocyclobutyl)amino)methyl)-4-isopropylquinolin-6-yl)-5-fluoropyrimidin-2-yl)amino)tetrahydro-2H-pyran-3-ol] | 6.22 | 7.92 |
| CC(C)c1c(CNC2CCOC2)cnc2ccc(-c3nc(N[C@@H]4CCOC[C@H]4O)ncc3F)cc12 (stereo partly drawn) [Example 21, (3S,4R)-4-((5-fluoro-4-(4-isopropyl-3-(((tetrahydrofuran-3-yl)amino)methyl)quinolin-6-yl)pyrimidin-2-yl)amino)tetrahydro-2H-pyran-3-ol] | 6.31 | 7.82 |
| CC(C)NCc1cnc2ccc(-c3nc(N[C@@H]4CCOC[C@H]4O)ncc3F)cc2c1C(C)C [Example 22, (3S,4R)-4-((5-fluoro-4-(4-isopropyl-3-((isopropylamino)methyl)quinolin-6-yl)pyrimidin-2-yl)amino)tetrahydro-2H-pyran-3-ol] | 6.40 | 8.15 |
| CC(C)c1c(CN2CC[C@@H](F)C2)cnc2ccc(-c3nc(N[C@@H]4CCOC[C@H]4O)ncc3F)cc12 [Example 23, (3S,4R)-4-((5-fluoro-4-(3-(((R)-3-fluoropyrrolidin-1-yl)methyl)-4-isopropylquinolin-6-yl)pyrimidin-2-yl)amino)tetrahydro-2H-pyran-3-ol] | 6.44 | 7.72 |
| CC(C)c1c(CNC[C@H]2CCCO2)cnc2ccc(-c3nc(N[C@@H]4CCOC[C@H]4O)ncc3F)cc12 [Example 24, (3S,4R)-4-((5-fluoro-4-(4-isopropyl-3-(((((R)-tetrahydrofuran-2-yl)methyl)amino)methyl)quinolin-6-yl)pyrimidin-2-yl)amino)tetrahydro-2H-pyran-3-ol] | 6.21 | 7.70 |
| CC(C)c1c(CNC2CC2)cnc2ccc(-c3nc(N[C@@H]4CCOC[C@H]4O)ncc3F)cc12 [Example 25, (3S,4R)-4-((4-(3-((cyclopropylamino)methyl)-4-isopropylquinolin-6-yl)-5-fluoropyrimidin-2-yl)amino)tetrahydro-2H-pyran-3-ol] | 6.65 | 8.08 |
| CC(C)c1c(CNC2CCCC2)cnc2ccc(-c3nc(N[C@@H]4CCOC[C@H]4O)ncc3F)cc12 [Example 26, (3S,4R)-4-((4-(3-((cyclopentylamino)methyl)-4-isopropylquinolin-6-yl)-5-fluoropyrimidin-2-yl)amino)tetrahydro-2H-pyran-3-ol] | 6.00 | 7.48 |

Other lines, results leading:

| pIC50 [1] | pIC50 [2] | Structure (SMILES) |
| --- | --- | --- |
| 6.17 | 7.17 | CNC(=O)c1cnc2ccc(-c3nc(N[C@@H]4CCOC[C@H]4O)ncc3F)cc2c1C(C)C [Example 1, 6-(5-fluoro-2-(((3S,4R)-3-hydroxytetrahydro-2H-pyran-4-yl)amino)pyrimidin-4-yl)-4-isopropyl-N-methyl quinoline-3-carboxamide] |
| 7.16 | 8.34 | CC(C)c1c(C(C)(C)O)cnc2ccc(-c3nc(N[C@@H]4CCOC[C@H]4O)ncc3F)cc12 [Example 2] |
| 7.13 | 8.31 | CC(C)c1c(CO)cnc2ccc(-c3nc(N[C@@H]4CCOC[C@H]4O)ncc3F)cc12 [Example 3, (3S,4R)-4-((5-fluoro-4-(3-(hydroxymethyl)-4-isopropylquinolin-6-yl)pyrimidin-2-yl)amino)tetrahydro-2H-pyran-3-ol] |
| 6.38 | 7.42 | CC(C)c1ccnc2ccc(-c3nc(N[C@@H]4CCOC[C@H]4O)ncc3Cl)cc12 [Example 4, (3S,4R)-4-((5-chloro-4-(4-isopropylquinolin-6-yl)pyrimidin-2-yl)amino)tetrahydro-2H-pyran-3-ol] |
| 6.09 | 6.97 | Cc1cc(C(C)C)c2cc(-c3nc(N[C@@H]4CCOC[C@H]4O)ncc3Cl)ccc2n1 [Example 5, (3S,4R)-4-((5-chloro-4-(4-isopropyl-2-methylquinolin-6-yl)pyrimidin-2-yl)amino)tetrahydro-2H-pyran-3-ol] |
| 6.80 | 8.03 | Cc1cnc2ccc(-c3nc(N[C@@H]4CCOC[C@H]4O)ncc3F)cc2c1C(C)C [Example 6, (3S,4R)-4-((5-fluoro-4-(4-isopropyl-3-methylquinolin-6-yl)pyrimidin-2-yl)amino)tetrahydro-2H-pyran-3-ol] |
| 6.60 | 7.85 | CC(C)c1ccnc2ccc(-c3nc(N[C@@H]4CCOC[C@H]4O)ncc3F)cc12 [Example 8, (3S,4R)-4-((5-fluoro-4-(4-isopropylquinolin-6-yl)pyrimidin-2-yl)amino)tetrahydro-2H-pyran-3-ol] |
| 7.03 | 7.68 | Cc1c(-c2nc(N[C@@H]3CCOC[C@H]3O)ncc2F)ccc2nccc(C(C)C)c12 [Example 9, (3S,4R)-4-((5-fluoro-4-(4-isopropyl-5-methylquinolin-6-yl)pyrimidin-2-yl)amino)tetrahydro-2H-pyran-3-ol] |
| 6.03 | 7.11 | Cc1cc(C(C)C)c2cc(-c3nc(N[C@@H]4CCOC[C@H]4O)ncc3F)ccc2n1 [Example 10, (3S,4R)-4-((5-fluoro-4-(4-isopropyl-2-methylquinolin-6-yl)pyrimidin-2-yl)amino)tetrahydro-2H-pyran-3-ol] |
| 6.25 | 7.68 | CC(C)c1c(CN(C)C)cnc2ccc(-c3nc(N[C@@H]4CCOC[C@H]4O)ncc3F)cc12 [Example 11, (3S,4R)-4-((4-(3-((dimethylamino)methyl)-4-isopropylquinolin-6-yl)-5-fluoropyrimidin-2-yl)amino)tetrahydro-2H-pyran-3-ol] |
